Data as given in US20160297820A1, “DIMERIZER COMPOUND” (AGENCY FOR SCIENCE, TECHNOLOGY AND RESEARCH, priority 2013, published 2016).
Substitutions are numbered along the chain they refer to.

What was measured:
[1] = test system: SNAP-Gal4 and CLIP-AD2 (firefly luciferase under the control of 9 UAS elements); test: Luciferase up-regulation through dimerization of SNAP-Gal4 and CLIP-AD2 in transfected HEK293 cells (pGL4.35 reporter); type: cell-based; details: for luciferase expression after UV illumination: 20 μM, 96-well plate, 365 nm UV for 10 minutes just after application, harvested one day after, FIG. 8d; for luciferase production: HEK293, harvested 24 hours after treatment, FIG. 8a
Description: pGL4.35 (obtained from Promega of Singapore) contains firefly luciferase under the control of 9 UAS elements. SNAP was amplified from pSNAPf with SNAP-XhoI-C and SNAP NheI N; CLIP from pCLIPf with NheI NLC CLIP and SNAP-XhoI-C; Gal4 from pCMV-Gal4 with Gal4 HisTag BamHI and SNAP-Gal4 N; activation domains (AD2) from pHet-Act2-1 with SNAP-p65AD-HSF1AD N and p65 AD-HSF1AD HisTag BamHI. The individual PCR reactions were combined by SOEing PCR (Splicing by Overlap Extension) to make SNAP-Gal4 and CLIP-AD2 PCR products. These were then cloned into peGFP-C1 with the NheI and BamHI sites, removing eGFP in the process. Both constructs contained the nuclear localizing signal.
(§1) HEK293 cells were obtained from ATCC and grown in DMEM medium supplemented by 10% FCS and penicillin-streptomycin at 37° C. and 5% carbon dioxide. All experiments performed were carried out in 24 well plates seeded with 1×10^5 cells per well. Transfection was performed with Lipofectamine 2000 (Invitrogen™, Life Technologies of Singapore) as per manufacturer's instructions the day after seeding. Medium was changed the day after transfection.
(§2) The dimerizers (or Compounds 1 and 2) were dissolved to 1 mM in DMSO and diluted further with DMSO so all applications were done by adding 4 μl of DMSO with compound 1 dissolved in it to 400 μl of medium for each well. Compound 1 was added at the mentioned concentration two days after transfection and incubated for 3 to 6 hours before the cells were harvested with RIPA Lysis and Extraction buffer (from Thermo Fisher Scientific Inc of Illinois of the United States of America). Compound 2 was added at the mentioned concentration three days after transfection and incubated for a specified duration before the cells were harvested.
HEK293 cells (in a 24-well plate) transfected with 400 ng pSNAP-Gal4 (Gal4 is a DNA-binding domain fused to SNAP), 200 ng pCLIP-AD2 (AD2 is a transcriptional activator fused to CLIP) and 100 ng pGL4.35 (GL4.35 is a luciferase reporter construct containing nine Gal4 binding motif for gene activation) were treated with stated amounts of either Compound 1 or 2 in 400 μl medium 1 day after transfection. Cells were harvested 24 hours after treatment and the levels of luciferase measured. FIG. 7 is a schematic diagram showing the up-regulation of luciferase.
Here, the cells were transfected as above and 8 μM of compound 2 was added to the cells one day after transfection. One day after, the cells were either illuminated with a fluorescent lamp or with a 365 nm UV lamp for 5 minutes. 0, 6, 24 or 48 hours later, the cells were harvested and the levels of luciferase measured.
The cells were transfected as above and 10 μM of compound 2 was added to the cells one day after transfection. One day after, the cells were illuminated with a 365 nm UV lamp for 10 minutes. […] Experiments were carried out in triplicates. The purpose of this experiment is to use a slightly higher amount of compound 2 and a longer UV irradiation time to optimize the linker cleavage.
HEK293 cells were transfected with the same ratio of plasmids in a 96-well plate and treated with 2% DMSO, 20 μM compound 1 or 20 μM compound 2 one day after transfection. Just after application, some of the cells were illuminated with 365 nm UV for 10 minutes. One day after, the cells were harvested.

[2] = molecular target: T1, SNAP-eGFP and CLIP-eGFP (Homo sapiens, UniProt P16455, A121V/A127T/A154D/C150Q/C62A/E30R/G131K/G131N/G132T/G153L/G153S/K125A/K32I/L33F/M134L/M60I/N157G/N157P/Q115S/Q116H/R128A/R135D/R135S/S151G/S152D/S159E/S159L/Y114E); test: Dimerization of SNAP-eGFP and CLIP-eGFP in transfected HEK293 cells, western blot against eGFP; type: cell-based
T1 construct: host or cells: HEK293
T1 sequence (P16455 1-182 E30R/K32I/L33F/C62A/Q115S/Q116H/K125A/A127T/R128A/G131K/G132T/M134L/R135S/C150Q/S151G/S152D/G153L/A154D/N157G/S159E limits assumed): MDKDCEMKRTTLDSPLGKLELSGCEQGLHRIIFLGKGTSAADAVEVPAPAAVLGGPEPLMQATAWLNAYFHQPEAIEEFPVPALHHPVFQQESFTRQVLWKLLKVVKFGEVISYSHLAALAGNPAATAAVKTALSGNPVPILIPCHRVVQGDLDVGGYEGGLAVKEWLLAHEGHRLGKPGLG
T1 sequence (P16455 1-182 E30R/K32I/L33F/M60I/C62A/Y114E/Q115S/Q116H/A121V/K125A/A127T/R128A/G131N/G132T/M134L/R135D/C150Q/S151G/S152D/G153S/A154D/N157P/S159L limits assumed): T1 sequence (P16455 1-182 E30R/K32I/L33F/C62A/Q115S/Q116H/K125A/A127T/R128A/G131K/G132T/M134L/R135S/C150Q/S151G/S152D/G153L/A154D/N157G/S159E limits assumed) with M60I, Y114E, A121V, K131N, S135D, L153S, G157P, E159L
Description: Mammalian expression vectors for SNAP-eGFP and CLIP-eGFP were constructed from pSNAPf and pCLIPf (obtained from New England Biolabs of Singapore). eGFP was amplified using primers XhoI eGFP F and NotI eGFP R from pEGFP-NAD. The amplified DNA fragment was digested using XhoI/NotI and cloned into pSNAPf and pCLIPf for C-terminal fused eGFP-SNAP and eGFP-CLIP constructs respectively.
as §1
as §2, with “harvested. […]” for “harvested.”
HEK293 cells were transfected with 250 ng of SNAP-eGFP and CLIP-eGFP. 3 days after transfection, increasing concentrations of 0.1 to 10 μM (0.1 μM, 0.4 μM, 1 μM, 4 μM, and 10 μM) of photocleavable dimerizer (Compound 2) were applied to the cells with fresh medium and the cells were harvested 6 hours after. […] The cleaved samples were equivalent volumes of uncleaved samples subjected to 365 nm illumination for 10 minutes.

stability of the dimer in the cell (no change in dimerization) ([2]; HEK293, 5 μM, FIG. 6c) | time after application to maximal dimerization ([2]; HEK293, 5 μM, FIG. 6c) | time after application to near saturation of dimerization ([2]; HEK293, 5 μM, FIG. 6c) | dimerization of SNAP-eGFP and CLIP-eGFP (specificity) ([2]; HEK293, SNAP-eGFP and CLIP-eGFP together vs either alone, 0, 5 or 20 μM, harvested 6 hours after, FIG. 6a) | cell penetration ([2]; HEK293 cells in culture, applied with DMSO) | concentration at which dimerization occurs ([2]; HEK cells, 0.1 nM to 10,000 nM applied, harvested 3 hours after, FIG. 6b) | dose dependence of heterodimerization ([2]; HEK cells, 0.1 nM to 10,000 nM, harvested 3 hours after, FIG. 6b) | reversal of dimerization by 365 nm illumination ([2]; 365 nm illumination for 10 minutes, FIG. 6d) | SMILES | luciferase expression after UV illumination [1] | luciferase production [1] | expression of luciferase, UV illumination compared to fluorescent lamp ([1]; 8 μM, 365 nm UV lamp for 5 minutes, harvested 0, 6, 24 or 48 hours later, FIG. 8b) | luciferase upregulation after exposure to UV illumination ([1]; FIG. 8b to FIG. 8d) | induction of dimerization of SNAP-eGFP and CLIP-eGFP ([2]; HEK293, 0.1 to 10 μM, harvested 6 hours after, FIG. 6d)
≥ 3 days | ≤ 24 h | 3 h | heterodimerization occurred specifically | could penetrate cells in culture | 400 nM | dose-dependent manner | – | Nc1ccnc(OCc2ccc(CNC(=O)NCCOCCOCCOCCNC(=O)CCCC(=O)NCc3ccc(COc4nc(N)nc5[nH]cnc45)cc3)cc2)n1 [Compound 1] | did not | produced in a dose-dependent fashion | – | – | –
– | – | – | – | – | – | – | partially reversing dimerization | COc1cc(C(C)NC(=O)CCCC(=O)NCc2ccc(COc3nc(N)nc4[nH]cnc34)cc2)c([N+](=O)[O-])cc1OCCCC(=O)NCCOCCOCCOCCNC(=O)NCc1ccc(COc2nccc(N)n2)cc1 (stereo not drawn) [Compound 2] | decreased luciferase expression | luciferase was produced | lower expression of luciferase | less effective | could induce dimerization at lower concentrations than compound 1
